Patent US20070208073A1, “Compositions and methods for treating cardiovascular, cerebrovascular and other vascular disease patients” (priority 2006, published 2007)

Test: Clinical treatment of high risk vascular patients: cholesterol panel (LDL, HDL, triglycerides)
Format: in vivo
Details: for LDL lowering effects on adding adjunct: adjunct added to statin composition, Niacin 500 mg, ezetimibe 10 mg
Description: The protocol of the instant invention was developed for patients that are high risk for a life and/or limb threatening vascular event (MI, CVA, limb/part of limb loss, Aortic dissection/rupture, Renal infarction, etc.) such as DM type I and/or II, CAD, PVD, post MI, post CVA, Hypertriglyceridemia, Hypercholesterolemia, AAA, etc.
It is generally acknowledged that a goal for a DM/CAD patient is to have a LDL cholesterol level less than 70 mg/dL (National Cholesterol Education Program Interim Report Guidelines).
Generally, a patient should start with a low dose of one statin, the dose should then be titrated up to half a maximal dose (titrate means to start a patient at the lowest dose and increase the dose monthly based on having a patient that is less than 3× normal levels for the LFTs, the LDL cholesterol level is not to goal, and there is no positive change in signs, symptoms or studies to evaluate vascular function per disease state). At that point, the patient should be evaluated to see if the LDL cholesterol level is near the goal. If the patient is near the goal, adjuncts should be given to see if the LDL cholesterol level can be further lowered. If the patient is not near the LDL cholesterol goal after titration up to half a maximal dose, the dose of the initial statin should be reduced and a low dose second statin from the other group should be added to the regimen (i.e., if the initial statin is a hydrophilic statin, the second statin should be a lipophilic statin; and vice versa). The second statin level should be titrated up to a half maximal dose if upon taking the statin from the other group (i.e., the second statin), the LDL cholesterol level goal is still not attained. If one is near or at the LDL cholesterol level goal before or after titration of the second statin, the adjuncts can be added to further reduce the LDL cholesterol level.

| SMILES | LDL lowering effects on adding adjunct | HDL up (niacin 500 mg a day with the composition of statins) | boost to the HDL levels (niacin 500 mg to 750 mg a day, adult, with two-statin composition) |
| --- | --- | --- | --- |
| O=C(O)c1cccnc1 [niacin] | amplified | at least 10% | ≥ 10% |
| O=C1[C@H](CC[C@H](O)c2ccc(F)cc2)[C@@H](c2ccc(O)cc2)N1c1ccc(F)cc1 [ezetimibe] | amplified | – | – |
